We go through four molecules from US12649925B2, “Tissue-specific expression and hybrid plant production” (Dow AgroSciences LLC, priority 2013, dated 2026).

One data set relates to maize tissues. Briefly: miRNA microarray expression profiling in maize tissues. Further details: species or system Zea mays. Here is the method:
miRNA microarray in various maize tissues: Tissues from maize inbred line B104 were used for miRNA profiling. Leaf tissues (at V2, V8 and flag leaf stages); immature tassel tissues (0.5 to 2.5 cm length); mature tassel tissues (tassel visible in the whorl); immature ear tissues (0.5 to 2 cm length); and mature ear tissues (visible ear shoot) were collected and immediately submerged in liquid nitrogen and stored at −80° C. Total RNA and low molecular weight RNAs were extracted using a mirVana™ miRNA isolation kit (INVITROGEN; Carlsbad, CA) following the manufacturer's instructions. RNA quality and quantity were assessed by optical density with a NANODROP 2000 spectrophotometer (THERMO SCIENTIFIC; Wilmington, DE) and by gel electrophoresis. miRNA microarray was performed by a commercial provider (LC SCIENCES; Houston, TX) using μParaflo® microfluidic oligonucleotide microarray technology. Zhou et al., (2012) Methods Mol. Biol. 822:153-82. All unique plant miRNA sequences available in MiRBase™ (mirbase.org) were printed on the arrays and used for miRNA profiling. […]

Another data set concerns Maize Immature Embryos. The data set can be described thus: Transient AAD1 expression in immature embryos after particle bombardment, ELISA. The data set is classed as cell-based, Zea mays. The note with it: 24 hours after particle bombardment. An excerpt:
Zea mays embryos from inbred line B104 that express AAD1 mRNAs having miRNA target sites within the mRNA were produced. Control tissues having no miRNA target sites in the AAD1 mRNA, or having no AAD1 gene expression cassette, were also produced. Other control tissues were produced that had only a YFP gene expression cassette (and no AAD1 construct). Preparations of plant transformation DNA molecules constructed as described in EXAMPLE 2 were delivered into maize B104 immature embryos via particle bombardment transformation.
Plasmid DNAs of pDAB112375, pDAB112376, pDAB112377, pDAB113016, pDAB100286, pDAB112378 and pDAB112330 were isolated and purified from Escherichia coli by standard techniques, and diluted in TE buffer (10 mM Tris HCl plus 1 mM EDTA, pH 8) to 1.0 μg/μL.
Embryo isolation and culture: (Day 1) Surface-sterilized B104 immature ears (10 to 12 days post-pollination) were used for the isolation of embryos. Excised immature embryos from 3 to 4 ears were pooled into 2 mL microfuge tubes containing 2.0 mL liquid medium (LS basal medium (Linsmaier and Skoog, (1965) Physiologia Plantarum 18:100-27) containing CHU N6 vitamins (Chu et al. (1975) Scientia Sinica 18:659-68), 700 mg/L L-Proline, 68.5 gm/L sucrose, 36 gm/L D(+) glucose, and 1.5 mg/L 2,4-D). After embryo isolation, the liquid medium was removed and discarded. Embryos were removed and placed onto plates (40 embryos per plate) containing a semi-solid osmotic medium (MS basal medium (Murashige and Skoog, (1962) Physiologia Plantarum 15:473-497), 2 mg/L Glycine, 500 μg/L Thiamine, 500 μg/L Pyroxidine, 50 μg/L Nicotinic Acid., 120 gm/L sucrose, 100 mg/L myo-inositol, and 2.4 gm/L GELRITE). The embryos were arranged in a […] within the target area for particle bombardment. Three replicate plates were prepared for each construct to be tested. All plates were incubated at 28° C. under continuous low light (50 μEm^−2 sec^−1) for 24 hours prior to particle bombardment.
Coating gold particles with DNA: (Day 2) Tubes of frozen gold particles glycerol stock were thawed on ice for a few minutes, then vortexed for 2 minutes at high speed until a uniform gold suspension was produced. Gold suspension was pipetted into sterile microcentrifuge tubes (50 μL each), with an intermediate vortexing of the particle stock between each tube to maintain a uniform suspension. 2.5 μg each of appropriate plasmid DNAs were included. […]
ELISA quantification of AAD1 and PAT proteins: Enzyme Linked Immunosorbant Assays (ELISAs) were used to measure the production of AAD1 and PAT proteins in maize cells and stably-transformed tissues. […]
(In an ELISA, binding on a coated surface is turned into a signal by an enzyme label.)

Consider “miR156: Zea mays micro-RNA, SEQ ID NO:1 UGACAGAAGAGAGUGAGCAC (expressed or natural sequence)”, for which the relative expression levels in the data set with maize tissues (Flag Leaf) is listed as 1657; with maize tissues (Immature Ear), 112; with maize tissues (Immature Tassel), 78; with maize tissues (Leaf V2), 4648; with maize tissues (Leaf V8), 1337; with maize tissues (Mature Ear) it was 1595. In the data set on maize tissues (Mature Tassel), the relative expression levels was found to be 2810.
Consider “miR319: micro-RNA, SEQ ID NO:3 UUGGACUGAAGGGUGCUCCC (expressed or natural sequence)”, for which the relative expression levels is reported as 16 in the data set on maize tissues (Flag Leaf); 3905 with maize tissues (Immature Ear); 2078 in the data set on maize tissues (Immature Tassel); 13 in the data set on maize tissues (Leaf V2); 8 in the data set on maize tissues (Leaf V8); 4616 in the data set with maize tissues (Mature Ear). This molecule returned a relative expression levels with maize tissues (Mature Tassel) of 1566.
As for “miR529: Zea mays micro-RNA, SEQ ID NO:2 AGAAGAGAGAGAGUACAGCCU (expressed or natural sequence)”, the relative expression levels turned out to be 30 in the data set on maize tissues (Flag Leaf); 90 with maize tissues (Immature Ear); 3174 in the data set with maize tissues (Immature Tassel); 199 with maize tissues (Leaf V2); 34 in the data set with maize tissues (Leaf V8); 1405 in the data set with maize tissues (Mature Ear). Moreover, in the data set on maize tissues (Mature Tassel), the relative expression levels is 1512. In addition, the “level higher in immature tassel tissues than in leaves” value in the data set on maize tissues (immature tassel vs leaves) is reported as 16- to 100 fold.

B1: pDAB112375: Transient transformation construct: ZmUbilv2/AAD1 v3/native WT miR529-156 site/ZmPer5 3′UTR (SEQ ID NO:6) (nucleic acid)
DNA: ATGGCTCATGCTGCCCTCAGCCCTCTCTCCCAACGCTTTGAGAGAATAGCTGTCCAGCCACTCACTGGTGTCCTTGGTGCTGAGATCACTGGAGTGGACTTGAGGGAACCACTTGATGACAGCACCTGGAATGAGATATTGGATGCCTTCCACACTTACCAAGTCATCTACTTTCCTGGCCAAGCAATCACCAATGAGCAGCACATTGCATTCTCAAGAAGGTTTGGACCAGTTGATCCAGTGCCTCTTCTCAAGAGCATTGAAGGCTATCCAGAGGTTCAGATGATCCGCAGAGAAGCCAATGAGTCTGGAAGGGTGATTGGTGATGACTGGCACACAGACTCCACTTTCCTTGATGCACCTCCAGCTGCTGTTGTGATGAGGGCCATAGATGTTCCTGAGCATGGCGGAGACACTGGGTTCCTTTCAATGTACACAGCTTGGGAGACCTTGTCTCCAACCATGCAAGCCACCATCGAAGGGCTCAACGTTGTGCACTCTGCCACACGTGTGTTCGGTTCCCTCTACCAAGCACAGAACCGTCGCTTCAGCAACACCTCAGTCAAGGTGATGGATGTTGATGCTGGTGACAGAGAGACAGTCCATCCCTTGGTTGTGACTCATCCTGGCTCTGGAAGGAAAGGCCTTTATGTGAATCAAGTCTACTGTCAGAGAATTGAGGGCATGACAGATGCAGAATCAAAGCCATTGCTTCAGTTCCTCTATGAGCATGCCACCAGATTTGACTTCACTTGCCGTGTGAGGTGGAAGAAAGACCAAGTCCTTGTCTGGGACAACTTGTGCACCATGCACCGTGCTGTTCCTGACTATGCTGGCAAGTTCAGATACTTGACTCGCACCACAGTTGGTGGAGTTAGGCCTGCCCGCTGAGTAGTTAGCTTAATCACCTAGAGCTCGACTCCAGCTGTGCTCTCTCTCTTCTGTCAACTCAGGTAACCTTTAAACTGAGGGCACTGAAGTCGCTTGATGTGCTGAATTGTTTGTGATGTTGGTGGCGTATTTTGTTTAAATAAGTAAGCATGGCTGTGATTTTATCATATGATCGATCTTTGGGGTTTTATTTAACACATTGTAAAATGTGTATCTATTAATAACTCAATGTATAAGATGTGTTCATTCTTCGGTTGCCATAGATCTGCTTATTTGACCTGTGATGTTTTGACTCCAAAAACCAAAATCACAACTCAATAAACTCATGGAATATGTCCACCTGTTTCTTGAAGAGTTCATCTACCATTCCAGTTGGCATTTATCAGTGTTGCAGCGGCGCTGTGCTTTGTAACATAACAATTGTTACGGCATATATCCAA
modifications: pDAB112375 expression cassette; (918)..(952) native tsh4 miR529-156 target site; (967)..(1331) ZmPer5 3′UTR
B1: the results for the “Mean AAD1 Amount” value with Maize Immature Embryos (co-bombardment plasmid pDAB112330 (Cry34Ab)) and in the data set on Maize Immature Embryos (co-bombardment plasmid pDAB112378 (artificial miRNA)) were 58 ng/mL and 51 ng/mL, respectively.
